Measurements as given in US5505922A, “Anesthetic pharmaceutical combination” (University of Maryland at Baltimore, priority 1995, dated 1996).
pIC50: −log10 of the molar value. Like-named read-outs stand apart in the source and are kept apart here.

Columns and labels:
[1] = acutely, 250 mg per ml of lithium; cited from earlier work
[2] = test system: desheathed ferret vagus nerves (C fibers); assay: In vitro recording of electrically stimulated compound action potentials from desheathed ferret vagus nerves (depression of action potential); assay type: cell-based; conditions: for pIC50: read-out: ED50 (the source's name); for shift in the dose/response curve: lithium Lockes versus sodium Lockes, FIGS. 1 to 4; for in vitro ED50 reduction relative to control values: lithium-containing versus sodium Lockes vehicle
Description: To test if replacement of lithium ions for sodium ions reduced the required local anesthetic dose, an in vitro experiment was performed, wherein the electrically stimulated compound action potentials were recorded from desheathed ferret vagus nerves, which are an enriched source of C fibers.
The ferret vagus nerves were removed bilaterally and were desheathed under a Zeiss dissecting microscope with a magnification of 2.5X. A single desheathed nerve was then placed in a chamber interlaced with electrodes for stimulating and recording action potentials. The central section of the nerve passes through the central well containing either buffer or drug in buffer.
The stimulation voltage was adjusted to provide maximal action potential. The stimulus duration was 0.5 milliseconds. Stimulation and recording parameters were programmed, and stimuli were presented at 2 second intervals. Five successive action potentials were averaged and stored as an estimate of action potential activity each minute. The intervening […] action potential were discarded.
Control nerves were bathed in a 100% sodium Locke's solution, synthesized in the manner set forth in Synthesis Example 1 above. Experimental nerves were bathed in lithium Locke's solution, comprising 35 mol Eq. % lithium, 65 mol Eq. % sodium Locke's solution, synthesized in the manner set forth in Synthesis Example 2 above.
The electrical stimuli were applied to one end of the nerve, while on the other end, the resulting action potential propagation was measured using an oscilloscope and the recording computer. Varying doses of mepivacaine were administered to the nerves so that dose/response curves could be constructed under both ionic conditions.
Following a period of equilibration in a buffer where control recordings are made, the well was emptied and a molar concentration of a test anesthetic was added. Various molar concentrations of mepivacaine, an amide type local anesthetic (Sterling-Winthrop Research Institute, Rensselear, N.Y.), and procaine, an ester type local anesthetic (Sigma Chemical Co., St. Louis, Mo.) were tested in both sodium and lithium Locke's buffer vehicles, as described above.
Compound action potentials having two distinct peaks, labeled as A and C peaks, are observed and were recorded at 2 second intervals. Five consecutive action potentials were recorded for each one minute time period over 30 minutes. At 30 minutes, the anesthetic was removed and the chamber was perfused with buffer. Recording was continued during this 30 minute period. The averaged data, collected every 2 minutes, was then analyzed to determine the slope of the action potential, the height of the action potential, the area under the curve of the action potential and the conduction velocity. This was done for both the A and C peaks.
The data were then plotted as percent of control versus time. Other molar concentrations were administered from the dose where there was no effect on the A peak, and to a dose where the action potential was depressed to zero.
Inspection of the data allowed recording of the maximal observed effect for each of the concentrations studied. This observed maximum (or an asymptotic value derived from an appropriate equation) was used to generate log-probit linear regressions of the dose versus the effect. This is accomplished by conversion of the percent effect to the corresponding probit value, conversion of the dose to its log10 and fitting a first degree polynomial to the resultant data by the method of least squares.
The 95% confidence band was calculated and plotted for the data. From the equations of the best fit line and the confidence bands, doses estimated to produce 50, 90 and 95% depression of the four parameters were calculated for both the A and C peaks of the action potentials.
Table 1 was prepared using the results of each of the concentrations onsets (T 85%). […]

[3] = test system: tooth pulps of the central incisors of rabbits; assay: In vivo electrically stimulated tooth pulp pain model (rabbit tooth pulp assay)
Description: To confirm the results of the in vitro experiments in vivo, an electrically stimulated tooth pulp pain model was used. The tooth pulps of the central incisors of rabbits were exposed using a high speed burr and dental drill.
Electrodes were inserted into the pulp chambers and the voltage required to elicit a lick/chew response was measured. The percentage analgesia was calculated from the following equation:
MPE=((TV-CV)/(10 V-CV))×100
wherein TV is the voltage after treatment; CV is the control voltage, and 10 V are the maximum volts applied.
The percent analgesia was recorded 0, 5, 10, 15, 30, 60, 120 and 180 minutes after injection.

[4] = control (sodium Lockes) buffer vehicle
[5] = in the lithium-containing buffer vehicle

Row | SMILES | acute tolerability [1] | pIC50 [2, 4] | pIC50 [2, 5] | shift in the dose/response curve [2] | in vitro ED50 reduction relative to control values [2] | shift in the dose/response curves ([3]; lithium Lockes versus sodium Lockes, FIGS. 5 and 6) | in vivo ED50 reduction relative to standard sodium Lockes vehicle ([3]; lithium Lockes versus standard sodium Lockes vehicle) | ED50 ([3]; lithium present in the buffer vehicle) | ED50 ([3]; without lithium (sodium Lockes))
1 | [Li] [lithium] | well tolerated | – | – | – | – | – | – | – | –
2 | Cc1cccc(C)c1NC(=O)C1CCCCN1C (stereo not shown) [mepivacaine] | – | 3.38 | 3.57 | not parallel and demonstrated that the effect of lithium was most pronounced at lower concentrations | reduced to half their control values | not parallel and demonstrated that the effect of lithium was most pronounced at lower concentrations | reduced to one third of its value | 0.69% | 1.93%
3 | CCN(CC)CCOC(=O)c1ccc(N)cc1 [procaine] | – | 3.27 | 3.72 | not parallel and demonstrated that the effect of lithium was most pronounced at lower concentrations | reduced to half their control values | – | – | – | –
